Measured values reported in patent US11780845B2 (Relay Therapeutics, Inc., priority 2019, dated 2023).
pIC50: −log10 of the molar value.

What was measured:
SNU16 cells = test: SNU16 Cancer Cell Line Proliferation Assay; assay type: cell-based; settings: Homo sapiens; SNU-16 cells
Outline: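 SNU16 cells were seeded, held 24 h at 37 degrees, then dosed with an 11-point 3-fold dilution series prepared from a 10 mM DMSO stock. After 96 h incubation, viability was read by CellTiter Glo luminescence.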

FGFR2 = FGFR2 (Homo sapiens (Human), UniProt P21802); test: FGFR2 Biochemical Caliper Assay
Method: Compounds of the present invention were also tested in a FGFR2 Biochemical Caliper Assay. Compounds were prepared in 10 mM DMSO solution and serially diluted into 11 concentrations by 3-fold dilution. […] 5 uL of ATP solution (100 uM) was added to start the reaction and the plate was incubated for 90 minutes, then 70 uL of stopping buffer (0.5M EDTA) was added to terminate the reaction. Each well was analyzed using EZ reader.

Chain of FGFR2 (P21802 22-821): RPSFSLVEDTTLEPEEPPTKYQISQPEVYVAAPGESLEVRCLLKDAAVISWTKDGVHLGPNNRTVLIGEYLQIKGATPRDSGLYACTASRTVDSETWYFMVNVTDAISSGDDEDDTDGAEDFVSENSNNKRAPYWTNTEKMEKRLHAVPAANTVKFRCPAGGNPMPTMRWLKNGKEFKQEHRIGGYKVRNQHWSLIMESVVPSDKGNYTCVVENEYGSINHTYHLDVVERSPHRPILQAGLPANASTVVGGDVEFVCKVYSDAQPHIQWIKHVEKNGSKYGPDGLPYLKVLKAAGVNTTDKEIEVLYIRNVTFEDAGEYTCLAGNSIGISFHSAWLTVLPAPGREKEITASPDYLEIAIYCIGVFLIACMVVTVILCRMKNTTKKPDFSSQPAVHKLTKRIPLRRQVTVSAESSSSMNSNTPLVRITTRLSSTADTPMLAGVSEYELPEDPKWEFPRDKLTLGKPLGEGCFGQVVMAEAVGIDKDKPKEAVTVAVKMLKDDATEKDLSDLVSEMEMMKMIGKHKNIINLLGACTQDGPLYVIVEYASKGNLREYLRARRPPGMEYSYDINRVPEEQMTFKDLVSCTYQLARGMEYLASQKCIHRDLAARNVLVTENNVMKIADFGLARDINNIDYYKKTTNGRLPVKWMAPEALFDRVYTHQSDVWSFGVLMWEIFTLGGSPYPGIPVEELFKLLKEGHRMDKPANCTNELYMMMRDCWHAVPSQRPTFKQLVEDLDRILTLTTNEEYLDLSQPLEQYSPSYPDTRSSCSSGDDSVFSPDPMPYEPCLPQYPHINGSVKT

Structure (SMILES)	pIC50 (SNU16 cells)	pIC50 (FGFR2)
C=C(C)C(=O)Nc1ccc(-c2c(-c3ccc(C(=O)NC4CCCC4O)cc3)c3c(N)ncnc3n2C)cc1 (stereo not shown) [Example 308]	6.60 to 7.00	> 7.00
C=C(C)C(=O)Nc1ccc(-c2c(-c3ccc(S(=O)(=O)NC4CCCC4O)cc3)c3c(N)ncnc3n2C)cc1 (stereo not shown) [Example 309]	6.00 to 6.60	4.00 to 6.00
C=C(C)C(=O)Nc1ccc(-c2c(-c3ccc(S(=O)(=O)NCC(C)(C)O)cc3)c3c(N)ncnc3n2C)cc1 [Example 310]	6.00 to 6.60	4.00 to 6.00
C=C(C)C(=O)Nc1ccc(-c2c(-c3ccc(S(=O)(=O)NC4CCC4)cc3)c3c(N)ncnc3n2C)cc1 [Example 311]	6.00 to 6.60	6.00 to 6.60
C=C(C)C(=O)Nc1ccc(-c2c(-c3ccc(S(=O)(=O)N(C)C4CCCC4)cc3)c3c(N)ncnc3n2C)cc1 [Example 312]	6.00 to 6.60	6.00 to 6.60
C=C(C)C(=O)Nc1ccc(-c2c(-c3ccc(-c4ncco4)nc3)c3c(N)ncnc3n2C)cc1 [Example 313]	6.00 to 6.60	4.00 to 6.00
C=C(C)C(=O)Nc1ccc(-c2c(-c3ccc(S(=O)(=O)CC4CCCC4)cc3)c3c(N)ncnc3n2C)cc1 [Example 314]	6.00 to 6.60	6.00 to 6.60
C=C(C)C(=O)Nc1ccc(-c2c(-c3ccc(S(=O)(=O)CCC(F)(F)F)cc3)c3c(N)ncnc3n2C)cc1 [Example 315]	6.00 to 6.60	6.00 to 6.60
C=C(C)C(=O)Nc1ccc(-c2c(-c3ccc(S(=O)(=O)N(C)CC(F)(F)F)cc3)c3c(N)ncnc3n2C)cc1 [Example 316]	6.00 to 6.60	6.00 to 6.60
C=C(C)C(=O)Nc1ccc(-c2c(-c3ccc(S(=O)(=O)NC4CCCC4OC)cc3)c3c(N)ncnc3n2C)cc1 (stereo not shown) [Example 318]	6.00 to 6.60	4.00 to 6.00
C=C(C)C(=O)Nc1ccc(-c2c(-c3ccc(C(=O)NC4CCCC4OC)cc3)c3c(N)ncnc3n2C)cc1 (stereo not shown) [Example 321]	6.60 to 7.00	6.60 to 7.00
C=C(C)C(=O)Nc1ccc(-c2c(-c3ccc(C(=O)N(C)Cc4ncon4)cc3)c3c(N)ncnc3n2C)cc1 [Example 324]	6.00 to 6.60	4.00 to 6.00
C=C(C)C(=O)Nc1ccc(-c2c(-c3ccc(C(=O)NC4CCCOC4)cc3)c3c(N)ncnc3n2C)cc1 (stereo not shown) [Example 327]	6.60 to 7.00	> 7.00
C=C(C)C(=O)Nc1ccc(-c2c(-c3ccc(C(=O)N[C@@H](CO)CC4CC4)cc3)c3c(N)ncnc3n2C)cc1 [Example 329]	6.00 to 6.60	> 7.00
C=C(C)C(=O)Nc1ccc(-c2c(-c3ccc(C(=O)NCC(O)C(F)(F)F)cc3)c3c(N)ncnc3n2C)cc1 (stereo not shown) [Example 332]	6.00 to 6.60	> 7.00
C=C(C)C(=O)Nc1ccc(-c2c(-c3ccc(C(=C)N[C@H]4CCOC4)cc3)c3c(N)ncnc3n2C)cc1 [Example 335]	6.00 to 6.60	6.00 to 6.60
C=C(C)C(=O)Nc1ccc(-c2c(-c3ccc(C(=O)NCC#N)cc3)c3c(N)ncnc3n2C)cc1 [Example 337]	6.00 to 6.60	6.00 to 6.60
C=C(C)C(=O)Nc1ccc(-c2c(-c3ccc(C(=O)NCC4CCO4)cc3)c3c(N)ncnc3n2C)cc1 (stereo not shown) [Example 348]	6.00 to 6.60	> 7.00
C=C(C)C(=O)Nc1ccc(-c2c(-c3ccc(C(=O)NC4C5COCC54)cc3)c3c(N)ncnc3n2C)cc1 (stereo not shown) [Example 352]	6.00 to 6.60	6.00 to 6.60
C=C(C)C(=O)Nc1ccc(-c2c(-c3ccc(C(=O)N4CCC[C@H](OC)C4)cc3)c3c(N)ncnc3n2C)cc1 [Example 353]	6.00 to 6.60	4.00 to 6.00

Structure (SMILES)	pIC50 (SNU16 cells)	pIC50 (FGFR2)
C=C(C)C(=O)Nc1ccc(-c2c(-c3ccc(C(=O)N4CCCC4)cc3)c3c(N)ncnc3n2C)cc1OC [Example 354]	6.00 to 6.60	4.00 to 6.00
C=C(C)C(=O)Nc1ccc(-c2c(-c3ccc(C(=O)N4CCC[C@@H]4COC)cc3)c3c(N)ncnc3n2C)cc1 [Example 361]	6.00 to 6.60	6.00 to 6.60
C=C(C)C(=O)Nc1ccc(-c2c(-c3ccc(C(=O)NCC4CCOC4)cc3)c3c(N)ncnc3n2C)cc1 (stereo not shown) [Example 362]	6.00 to 6.60	> 7.00
C=C(C)C(=O)Nc1ccc(-c2c(-c3ccc(C(=O)N(C)CC(C)(C)O)cc3)c3c(N)ncnc3n2C)cc1 [Example 368]	6.00 to 6.60	6.00 to 6.60
C=C(C)C(=O)Nc1ccc(-c2c(-c3ccc(C(=O)N4CCCCC4COC)cc3)c3c(N)ncnc3n2C)cc1 (stereo not shown) [Example 369]	≥ 7.00	> 7.00
C=C(C)C(=O)Nc1ccc(-c2c(-c3ccc(Oc4cccc(C)n4)cc3)c3c(N)ncnc3n2CCOC)cc1 [Example 370]	≥ 7.00	> 7.00
C=C(C)C(=O)Nc1ccc(-c2c(-c3ccc(C(=O)NC(CF)CF)cc3)c3c(N)ncnc3n2C)cc1 [Example 371]	≥ 7.00	> 7.00
C=C(C)C(=O)Nc1ccc(-c2c(-c3ccc(C(=O)NCC4(CO)CC4)cc3)c3c(N)ncnc3n2C)cc1 [Example 372]	6.00 to 6.60	> 7.00
C=C(C)C(=O)Nc1ccc(-c2c(-c3ccc(C(=O)NCC(C)(C)C#N)cc3)c3c(N)ncnc3n2C)cc1 [Example 373]	≥ 7.00	> 7.00
C=C(C)C(=O)Nc1ccc(-c2c(-c3ccc(C(=O)N(C)Cc4nnc(C)o4)cc3)c3c(N)ncnc3n2C)cc1 [Example 374]	6.00 to 6.60	4.00 to 6.00
C=C(C)C(=O)Nc1ccc(-c2c(-c3ccc(C(=O)N(C)Cc4noc(C)n4)cc3)c3c(N)ncnc3n2C)cc1 [Example 375]	6.00 to 6.60	6.00 to 6.60
C=C(C)C(=O)Nc1ccc(-c2c(-c3ccc(C(=O)NCC4CCCO4)cc3)c3c(N)ncnc3n2C)cc1 (stereo not shown) [Example 376]	≥ 7.00	> 7.00
C=C(C)C(=O)Nc1ccc(-c2c(-c3ccc(C(=O)NCC4CCCN4C)cc3)c3c(N)ncnc3n2C)cc1 (stereo not shown) [Example 377]	6.00 to 6.60	6.00 to 6.60
C=C(C)C(=O)Nc1ccc(-c2c(-c3ccc(Oc4cccc(C)n4)c(OCCOC)c3)c3c(N)ncnc3n2C)cc1 [Example 378]	6.00 to 6.60	4.00 to 6.00
C=C(C)C(=O)Nc1ccc(-c2c(-c3ccc(Oc4cccc(N)n4)cc3)c3c(N)ncnc3n2C)cc1 [Example 379]	≥ 7.00	> 7.00
C=C(C)C(=O)Nc1ccc(-c2c(-c3ccc(Oc4cccc(C)n4)cc3)c3c(N)ncnc3n2C)cc1CN(C)C [Example 380]	6.00 to 6.60	6.60 to 7.00
C=C(C)C(=O)Nc1ccc(-c2c(-c3ccc(C(=O)NCC4CCC4)cc3)c3c(N)ncnc3n2C)cc1 [Example 381]	≥ 7.00	> 7.00
C=C(C)C(=O)Nc1ccc(-c2c(-c3ccc(Oc4nccc(C)n4)cc3)c3c(N)ncnc3n2C)cc1 [Example 382]	≥ 7.00	> 7.00
C=C(C)C(=O)Nc1ccc(-c2c(-c3ccc(C(=O)NCc4ccn(C)n4)cc3)c3c(N)ncnc3n2C)cc1 [Example 383]	6.00 to 6.60	4.00 to 6.00

Results, then the molecule that gave them:

pIC50 (SNU16 cells)	pIC50 (FGFR2)	Structure (SMILES)
≥ 7.00	> 7.00	C=C(C)C(=O)Nc1ccc(-c2c(-c3ccc(C(=O)N(C)CC(F)(F)F)cc3)c3c(N)ncnc3n2C)cc1 [Example 304]
≥ 7.00	> 7.00	C=C(C)C(=O)Nc1ccc(-c2c(-c3ccc(C(=O)NCC(F)F)cc3)c3c(N)ncnc3n2C)cc1 [Example 305]
≥ 7.00	> 7.00	C=C(C)C(=O)Nc1ccc(-c2c(-c3ccc(C(=O)NCC(C)(C)OC)cc3)c3c(N)ncnc3n2C)cc1 [Example 306]
≥ 7.00	> 7.00	C=C(C)C(=O)Nc1ccc(-c2c(-c3ccc(C(=O)NCC(C)C)cc3)c3c(N)ncnc3n2C)cc1 [Example 307]
≥ 7.00	> 7.00	C=C(C)C(=O)Nc1ccc(-c2c(-c3ccc(C(=O)NCC4CC4)cc3)c3c(N)ncnc3n2C)cc1 [Example 320]
≥ 7.00	> 7.00	C=C(C)C(=O)Nc1ccc(-c2c(-c3ccc(C(=O)NCC(C)(C)CO)cc3)c3c(N)ncnc3n2C)cc1 [Example 331]
≥ 7.00	> 7.00	C=C(C)C(=O)Nc1ccc(-c2c(-c3ccc(C(=O)NCC4(F)COC4)cc3)c3c(N)ncnc3n2C)cc1 [Example 338]
≥ 7.00	6.60 to 7.00	C=C(C)C(=O)Nc1ccc(-c2c(-c3ccc(Oc4ncc(C)cn4)cc3)c3c(N)ncnc3n2C)cc1 [Example 339]
≥ 7.00	> 7.00	C=C(C)C(=O)Nc1ccc(-c2c(-c3ccc(Oc4cccc(C)n4)cc3)c3c(N)ncnc3n2C)cc1F [Example 340]
≥ 7.00	> 7.00	C=C(C)C(=O)Nc1ccc(-c2c(-c3ccc(Oc4cccc(C)n4)cc3)c3c(N)ncnc3n2C)c(F)c1 [Example 341]
≥ 7.00	> 7.00	C=C(C)C(=O)Nc1ccc(-c2c(-c3ccc(Oc4cccc(OC)n4)cc3)c3c(N)ncnc3n2C)cc1 [Example 342]
≥ 7.00	6.60 to 7.00	C=C(C)C(=O)Nc1ccc(-c2c(-c3ccc(Oc4cccc(C)n4)cc3)c3c(N)ncnc3n2C)cc1OC [Example 344]
≥ 7.00	> 7.00	C=C(C)C(=O)Nc1ccc(-c2c(-c3ccc(C(=O)N[C@@H](COC)C4CC4)cc3)c3c(N)ncnc3n2C)cc1 [Example 346]
≥ 7.00	> 7.00	C=C(C)C(=O)Nc1ccc(-c2c(-c3ccc(C(=O)NCC4(OC)CCC4)cc3)c3c(N)ncnc3n2C)cc1 [Example 351]
≥ 7.00	> 7.00	C=C(C)C(=O)Nc1ccc(-c2c(-c3ccc(C(=O)N4CCCC4)cc3)c3c(N)ncnc3n2C)c(F)c1 [Example 355]
≥ 7.00	> 7.00	C=C(C)C(=O)Nc1ccc(-c2c(-c3ccc(C(=O)N4CCC[C@H]4COC)cc3)c3c(N)ncnc3n2C)cc1 [Example 357]
≥ 7.00	> 7.00	C=C(C)C(=O)Nc1ccc(-c2c(-c3ccc(C(=O)NC4(COC)CCC4)cc3)c3c(N)ncnc3n2C)cc1 [Example 365]
